Assay results taken from patent publication US6066628A, “Non-iron metalloporphyrins and methods of use” (Emory University, priority 1998, dated 2000).

Tests used:
M. tuberculosis = type: cell-based, Mycobacterium tuberculosis; details: pathogenic M. tuberculosis
S. aureus [1] = type: cell-based, Staphylococcus aureus; details: methicillin-resistant S. aureus IR219; Nutrient broth (Table 2)
E. faecalis = experiment: Disc diffusion sensitivity test; type: cell-based, Enterococcus faecalis; details: disc ~50 μg MP; also: key: -: resistant; N: not determined
S. aureus [2] = experiment: Disc diffusion sensitivity test; type: cell-based, Staphylococcus aureus; details: S. aureus; disc ~50 μg MP
Y. enterocolitica [3] = experiment: Disc diffusion sensitivity test; type: cell-based; details: disc ~50 μg MP
M. smegmatis [4] = type: cell-based, Mycobacterium smegmatis
Ps. aeruginosa = experiment: Disc diffusion sensitivity test; type: cell-based, Pseudomonas aeruginosa; details: disc ~50 μg MP; also: key: -: resistant; N: not determined
F. menigosepticum = experiment: Disc diffusion sensitivity test; type: cell-based, Flavobacterium meningosepticum; details: F. meningosepticum; disc ~50 μg MP
E. aerogenes = experiment: Disc diffusion sensitivity test; type: cell-based, Enterobacter aerogenes; details: E. aerogenes; disc ~50 μg MP
C. freundii = experiment: Disc diffusion sensitivity test; type: cell-based, Citrobacter freundii; details: C. freundii; disc ~50 μg MP
[5] = system: Streptococcus pyogenes JRS4; type: cell-based; details: S. pyogenes JRS4 (Table 4)
Y. enterocolitica [6] = experiment: microbe, parasite or virus in culture; type: cell-based
S. pyogenes A = experiment: Disc diffusion sensitivity test; type: cell-based, Streptococcus pyogenes; details: disc ~50 μg MP
P. mirabills = experiment: Disc diffusion sensitivity test; type: cell-based, Proteus mirabilis; details: P. mirabilis; disc ~50 μg MP
M tuber. H37Rv = experiment: Disc diffusion sensitivity test; type: cell-based, Mycobacterium tuberculosis; details: disc ~50 μg MP
Y. enterocolitica [7] = experiment: Minimal bactericidal concentration; type: cell-based; details: reduces plating efficiency more than 99.9%; minimal exposure to light
E. coli = experiment: Disc diffusion sensitivity test; type: cell-based, Escherichia coli; details: E. coli; disc ~50 μg MP
S. aureus [8] = experiment: Minimal bactericidal concentration; type: cell-based, Staphylococcus aureus; details: reduces plating efficiency more than 99.9%; minimal exposure to light
Description: Minimal bactericidal concentrations (MBCs) were determined essentially the same way as MICs except that the amount of killing with a particular concentration of porphyrin derivative was determined by plating on solid microbiological media (LB plates or LB+Tween 80). Media were solidified by the incorporation of 1.5% agar (Difco Laboratories). Concentrations of porphyrins that produced 99.9% reduction in bacterial counts were considered bactericidal [Hindler et al. (1994) supra].
MBC were determined by plating bacterial cultures that have been incubate
in the presence of MPs at concentrations higher than MIC. MBC was defined
as a concentration of a particular MP which reduces the plating efficienc
more than 99.9%. Experiments were done with minimal exposure to light
(addition of porphyrins waa done in the presence of artifical light).

K. pneumoniae = experiment: Disc diffusion sensitivity test; type: cell-based, Klebsiella pneumoniae; details: K. pneumoniae; disc ~50 μg MP
K. oxytoca = experiment: Disc diffusion sensitivity test; type: cell-based, Klebsiella oxytoca; details: K. oxytoca; disc ~50 μg MP
M. smegmatis [9] = experiment: Minimal bactericidal concentration; type: cell-based, Mycobacterium smegmatis; details: reduces plating efficiency more than 99.9%; minimal exposure to light
M. avium = details: M. avium
M tuber. H37Pa = experiment: Disc diffusion sensitivity test; type: cell-based, Mycobacterium tuberculosis; details: disc ~50 μg MP
yeasts = experiment: Yeast growth inhibition; type: cell-based
bacteria = type: cell-based
Cryptococcus neoformans = experiment: MIC 80 microdilution, clinical yeast isolates; type: cell-based
Description: (§1) MICs of Ga-UPI against selected clinical yeast isolates. Growth was
(§2) scored after 24 and 48 hours of incubation.

Candida glabrata = experiment: MIC 80 microdilution, clinical yeast isolates; type: cell-based
Description: as §1, §2

Candida tropicalis = experiment: MIC 80 microdilution, clinical yeast isolates; type: cell-based
Description: as §1, §2

Candida albicans = experiment: MIC 80 microdilution, clinical yeast isolates; type: cell-based
Description: as §1, §2

Candida krusei = experiment: MIC 80 microdilution, clinical yeast isolates; type: cell-based
Candida pillosus = experiment: MIC 80 microdilution, clinical yeast isolates; type: cell-based

## Indium (III) protoporphyrin IX chloride [In-PPIX]
M. tuberculosis
  sensitivity (preliminary experiments): sensitive
S. aureus [1]
  Minimal inhibitory concentration (MIC): 1.6 µg/mL
E. faecalis
  diameter (mm) of the inhibition zone: -
S. aureus [2]
  diameter (mm) of the inhibition zone: 15 mm
Y. enterocolitica [3]
  diameter (mm) of the inhibition zone: 12 mm
M. smegmatis [4]; M. smegmatis
  antibacterial activity: inhibitory
M. smegmatis [4]; M. smegmatis LR222, LB + Tween 80 (Table 2)
  Minimal inhibitory concentration (MIC): 0.4 µg/mL
Ps. aeruginosa
  diameter (mm) of the inhibition zone: -
F. menigosepticum
  diameter (mm) of the inhibition zone: -
E. aerogenes
  diameter (mm) of the inhibition zone: 9 mm
C. freundii
  diameter (mm) of the inhibition zone: 9 mm
[5]
  MIC: 0.1 µg/mL
Y. enterocolitica [6]
  Minimal inhibitory concentration (MIC): 0.2
  antibacterial activity: inhibitory
S. pyogenes A
  diameter (mm) of the inhibition zone: 13 mm
P. mirabills
  diameter (mm) of the inhibition zone: 9 mm
M tuber. H37Rv
  diameter (mm) of the inhibition zone: -
Y. enterocolitica [7]
  Minimal bactericidal concentration (MBC): > 13
E. coli
  diameter (mm) of the inhibition zone: -
S. aureus [8]
  Minimal bactericidal concentration (MBC): > 13
K. pneumoniae
  diameter (mm) of the inhibition zone: 9 mm
K. oxytoca
  diameter (mm) of the inhibition zone: 9 mm
M. smegmatis [9]
  Minimal bactericidal concentration (MBC): 10
M. avium
  sensitivity (preliminary experiments): sensitive
M tuber. H37Pa
  diameter (mm) of the inhibition zone: 17 mm

## O=C(O)CCC1=C(CC(=O)O)C2=NC1=Cc1c(CC(=O)O)c(CCC(=O)O)c3[n]1[Ga]([Cl])[n]1c(c(CCC(=O)O)c(CC(=O)O)c1=CC1=NC(=C3)C(CC(=O)O)=C1CCC(=O)O)=C2 [Ga-UPI, Ga-uroporphyrin I]
yeasts
  inhibition of growth of yeast: able to inhibit growth of yeast
bacteria
  antibacterial activity: seriously limited in their antibacterial activities
Cryptococcus neoformans; 97-044, 24 hours
  MIC 80: 16 µg/mL
Cryptococcus neoformans; 97-044, 48 hours
  MIC 80: 16 µg/mL
Cryptococcus neoformans; 97-045, 24 hours
  MIC 80: 16 µg/mL
Cryptococcus neoformans; 97-045, 48 hours
  MIC 80: 32 µg/mL
Cryptococcus neoformans; 97-046, 24 hours
  MIC 80: 16 µg/mL
Cryptococcus neoformans; 97-046, 48 hours
  MIC 80: 16 µg/mL
Cryptococcus neoformans; 97-047, 24 hours
  MIC 80: 8 µg/mL
Cryptococcus neoformans; 97-047, 48 hours
  MIC 80: 16 µg/mL
Cryptococcus neoformans; 97-048, 24 hours
  MIC 80: 16 µg/mL
Cryptococcus neoformans; 97-048, 48 hours
  MIC 80: 16 µg/mL
Candida glabrata; 97-049, 24 hours
  MIC 80: 8 µg/mL
Candida glabrata; 97-049, 48 hours
  MIC 80: 32 µg/mL
Candida glabrata; 97-050, 24 hours
  MIC 80: 8 µg/mL
Candida glabrata; 97-050, 48 hours
  MIC 80: 16 µg/mL
Candida glabrata; 97-051, 24 hours
  MIC 80: 8 µg/mL
Candida glabrata; 97-051, 48 hours
  MIC 80: 32 µg/mL
Candida glabrata; 97-052, 24 hours
  MIC 80: 8 µg/mL
Candida glabrata; 97-052, 48 hours
  MIC 80: 32 µg/mL
Candida glabrata; 97-053, 24 hours
  MIC 80: 8 µg/mL
Candida glabrata; 97-053, 48 hours
  MIC 80: 16 µg/mL
Candida tropicalis; 97-054, 24 hours
  MIC 80: 16 µg/mL
Candida tropicalis; 97-054, 48 hours
  MIC 80: 32 µg/mL
Candida tropicalis; 97-055, 24 hours
  MIC 80: 8 µg/mL
Candida tropicalis; 97-055, 48 hours
  MIC 80: 16 µg/mL
Candida albicans; 97-010, 24 hours
  MIC 80: 2 µg/mL
Candida albicans; 97-010, 48 hours
  MIC 80: 8 µg/mL
Candida albicans; 97-012, 24 hours
  MIC 80: 2 µg/mL
Candida albicans; 97-012, 48 hours
  MIC 80: 8 µg/mL
Candida albicans; 97-014, 24 hours
  MIC 80: 2 µg/mL
Candida albicans; 97-014, 48 hours
  MIC 80: 8 µg/mL
Candida albicans; 97-015, 24 hours
  MIC 80: 2 µg/mL
Candida albicans; 97-015, 48 hours
  MIC 80: 8 µg/mL
Candida albicans; 97-031, 24 hours
  MIC 80: 2 µg/mL
Candida albicans; 97-031, 48 hours
  MIC 80: 16 µg/mL
Candida krusei; 97-058, 24 hours
  MIC 80: 1 µg/mL
Candida krusei; 97-058, 48 hours
  MIC 80: 4 µg/mL
Candida krusei; 97-059, 24 hours
  MIC 80: 2 µg/mL
Candida krusei; 97-059, 48 hours
  MIC 80: 8 µg/mL
Candida krusei; ATCC-6258, 24 hours
  MIC 80: 1 µg/mL
Candida krusei; ATCC-6258, 48 hours
  MIC 80: 2 µg/mL
Candida pillosus; 97-056, 24 hours
  MIC 80: 1 µg/mL
Candida pillosus; 97-056, 48 hours
  MIC 80: 2 µg/mL
Candida pillosus; 97-057, 24 hours
  MIC 80: 2 µg/mL
Candida pillosus; 97-057, 48 hours
  MIC 80: 8 µg/mL
Y. enterocolitica [7]
  Minimal bactericidal concentration (MBC): 10
S. aureus [8]
  Minimal bactericidal concentration (MBC): 10
M. smegmatis [9]
  Minimal bactericidal concentration (MBC): 10

## O=C(O)CCC1=C(CC(=O)O)C2=Cc3c(CC(=O)O)c(CCC(=O)O)c4[n]3[Ga]([Cl])[n]3c(c(CCC(=O)O)c(CC(=O)O)c3=CC3=NC(=C4)C(CC(=O)O)=C3CCC(=O)O)=CC1=N2 [Ga-UPIII, Ga-uroporphyrin III]
yeasts
  inhibition of growth of yeast: able to inhibit growth of yeast
bacteria
  antibacterial activity: seriously limited in their antibacterial activities

## CC1=C(CCC(=O)O)C2=Cc3c(C)c(CCC(=O)O)c4[n]3[Ga]([Cl])[n]3c(c(C)c(CCC(=O)O)c3=CC1=N2)=CC1=NC(=C4)C(C)=C1CCC(=O)O [Ga-COPI, Ga-coproporphyrin I]
yeasts
  inhibition of growth of yeast: able to inhibit growth of yeast
bacteria
  antibacterial activity: seriously limited in their antibacterial activities
